According to ChEMBL document CHEMBL5500344, “Design, synthesis and biological evaluation of matrine contains benzimidazole derivatives as dual TOPOI and PARP inhibitors for cancer therapy” (Eur J Med Chem, 2024):

Legend:
HeLa = assay: Antiproliferative activity against human HeLa cells assessed as inhibition of cell growth incubated for 48 hrs by MTT assay; assay type: functional, cell-based
A549 = assay: Antiproliferative activity against human A549 cells assessed as inhibition of cell growth incubated for 48 hrs by MTT assay; assay type: functional, cell-based; conditions: A549, 48 h
HepG2 = assay: Antiproliferative activity against human HepG2 cells assessed as inhibition of cell growth incubated for 48 hrs by MTT assay; assay type: functional, cell-based; conditions: HepG2, 48 h
HGC-27 = assay: Antiproliferative activity against human HGC-27 cells assessed as inhibition of cell growth incubated for 48 hrs by MTT assay; assay type: functional, cell-based; conditions: HGC-27, 48 h, read-out: IC50
L02 = assay: Antiproliferative activity against human L02 cells assessed as inhibition of cell growth incubated for 48 hrs by MTT assay; assay type: functional, cell-based; conditions: L02, 48 h
[1] = target: Poly [ADP-ribose] polymerase 1 (Homo sapiens, UniProt P09874); assay: Inhibition of PARP-1 (unknown origin) incubated for 70 mins by HT universal chemiluminescent assay
Sequence of Poly [ADP-ribose] polymerase 1 (P09874 whole entry): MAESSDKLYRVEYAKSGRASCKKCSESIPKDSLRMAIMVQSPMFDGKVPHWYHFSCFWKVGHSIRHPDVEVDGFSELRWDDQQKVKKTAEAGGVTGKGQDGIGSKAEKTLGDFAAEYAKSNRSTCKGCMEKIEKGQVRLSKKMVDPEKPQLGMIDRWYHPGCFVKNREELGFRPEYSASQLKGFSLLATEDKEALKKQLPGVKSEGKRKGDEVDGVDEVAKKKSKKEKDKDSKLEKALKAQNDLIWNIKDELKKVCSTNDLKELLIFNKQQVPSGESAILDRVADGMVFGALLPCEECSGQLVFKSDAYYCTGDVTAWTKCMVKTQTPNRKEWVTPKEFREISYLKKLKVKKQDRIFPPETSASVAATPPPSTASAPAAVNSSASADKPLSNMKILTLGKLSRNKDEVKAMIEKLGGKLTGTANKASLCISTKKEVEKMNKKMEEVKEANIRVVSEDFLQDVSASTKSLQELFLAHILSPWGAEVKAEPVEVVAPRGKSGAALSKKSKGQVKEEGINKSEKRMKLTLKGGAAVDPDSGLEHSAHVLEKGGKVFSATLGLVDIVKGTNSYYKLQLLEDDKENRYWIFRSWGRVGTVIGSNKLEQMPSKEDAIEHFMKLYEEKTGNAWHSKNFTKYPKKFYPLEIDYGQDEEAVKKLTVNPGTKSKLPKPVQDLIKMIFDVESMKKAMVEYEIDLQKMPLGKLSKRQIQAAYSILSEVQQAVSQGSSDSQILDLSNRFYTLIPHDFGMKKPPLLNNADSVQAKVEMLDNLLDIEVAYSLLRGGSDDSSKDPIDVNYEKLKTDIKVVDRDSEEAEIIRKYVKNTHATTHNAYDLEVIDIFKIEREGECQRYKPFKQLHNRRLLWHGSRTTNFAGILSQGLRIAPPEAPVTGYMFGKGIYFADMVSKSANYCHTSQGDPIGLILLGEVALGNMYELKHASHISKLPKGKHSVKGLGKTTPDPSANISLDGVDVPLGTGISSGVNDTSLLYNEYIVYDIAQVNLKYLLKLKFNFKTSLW

IC50 (HeLa)	IC50 (A549)	IC50 (HepG2)	IC50 [1]	SMILES	IC50 (HGC-27)	IC50 (L02)
> 80 µM	> 80 µM	> 80 µM	–	O=S(=O)(c1ccc(C(F)(F)F)cc1)N1C[C@@H]2CCCN3CCC[C@@H]([C@H]23)[C@H]1CCCc1nc2ccc(Cl)cc2n1S(=O)(=O)c1ccc(C(F)(F)F)cc1	70.3 µM	–
23.8 µM	31 µM	13.8 µM	–	Cn1c(CCC[C@@H]2[C@H]3CCCN4CCC[C@@H](CN2C(=O)OCC2c5ccccc5-c5ccccc52)[C@@H]34)nc2ccc([N+](=O)[O-])cc21	11.1 µM	–
65.6 µM	62.8 µM	50.2 µM	–	CC(C)(C)c1ccc(S(=O)(=O)N2C[C@@H]3CCCN4CCC[C@@H]([C@H]34)[C@H]2CCCc2nc3cc([N+](=O)[O-])ccc3n2S(=O)(=O)c2ccc(C(C)(C)C)cc2)cc1	44.2 µM	–
20.4 µM	36.3 µM	19.7 µM	–	O=C(OCC1c2ccccc2-c2ccccc21)N1C[C@@H]2CCCN3CCC[C@@H]([C@H]23)[C@H]1CCCc1nc2ccc(Cl)cc2[nH]1	15.2 µM	–
70.1 µM	69.3 µM	52.8 µM	–	CC(C)(C)c1ccc(S(=O)(=O)N2C[C@@H]3CCCN4CCC[C@@H]([C@H]34)[C@H]2CCCc2nc3ccc([N+](=O)[O-])cc3n2S(=O)(=O)c2ccc(C(C)(C)C)cc2)cc1	47.8 µM	–
53.2 µM	46.1 µM	11.2 µM	–	O=S(=O)(c1ccc(Cl)cc1)N1C[C@@H]2CCCN3CCC[C@@H]([C@H]23)[C@H]1CCCc1nc2ccc(Cl)cc2n1S(=O)(=O)c1ccc(Cl)cc1	12.1 µM	–
15.5 µM	20.6 µM	23.8 µM	–	Cn1c(CCCNC(=O)CCC[C@@H]2[C@H]3CCCN4CCC[C@@H](CN2C(=O)OCC2c5ccccc5-c5ccccc52)[C@@H]34)nc2ccc([N+](=O)[O-])cc21	16.8 µM	–
78.5 µM	67.2 µM	70.7 µM	–	CC(C)(C)c1ccc(S(=O)(=O)N2C[C@@H]3CCCN4CCC[C@@H]([C@H]34)[C@H]2CCCc2nc3ccc(Cl)cc3n2S(=O)(=O)c2ccc(C(C)(C)C)cc2)cc1	60.3 µM	–
13.2 µM	18.7 µM	22.5 µM	–	O=C(CCC[C@@H]1[C@H]2CCCN3CCC[C@@H](CN1C(=O)OCC1c4ccccc4-c4ccccc41)[C@@H]23)NCCCc1nc2ccc(C(F)(F)F)cc2[nH]1	19.7 µM	–
> 80 µM	53.2 µM	52.3 µM	–	Cc1ccc(S(=O)(=O)N2C[C@@H]3CCCN4CCC[C@@H]([C@H]34)[C@H]2CCCc2nc3cc([N+](=O)[O-])ccc3n2S(=O)(=O)c2ccc(C)cc2)cc1	47.4 µM	–
49.6 µM	69.9 µM	13.5 µM	–	Cc1ccc(S(=O)(=O)N2C[C@@H]3CCCN4CCC[C@@H]([C@H]34)[C@H]2CCCc2nc3ccccc3n2S(=O)(=O)c2ccc(C)cc2)cc1	18.2 µM	–
18.1 µM	15.2 µM	13.7 µM	–	C[C@]1(c2nc3c(C(N)=O)cccc3[nH]2)CCCN1 [VELIPARIB]	16 µM	–
71.2 µM	68.2 µM	32.2 µM	–	O=S(=O)(c1ccc(Br)cc1)N1C[C@@H]2CCCN3CCC[C@@H]([C@H]23)[C@H]1CCCc1nc2ccc(Cl)cc2n1S(=O)(=O)c1ccc(Br)cc1	29.3 µM	–
16.6 µM	24.1 µM	16.5 µM	–	O=C(OCC1c2ccccc2-c2ccccc21)N1C[C@@H]2CCCN3CCC[C@@H]([C@H]23)[C@H]1CCCc1nc2ccccc2n1C(=O)OCC1c2ccccc2-c2ccccc21	13.8 µM	–
25.5 µM	33.6 µM	27.7 µM	–	O=C(OCC1c2ccccc2-c2ccccc21)N1C[C@@H]2CCCN3CCC[C@@H]([C@H]23)[C@H]1CCCc1nc2ccc(C(F)(F)F)cc2[nH]1	25.6 µM	–
21.2 µM	19 µM	28.6 µM	–	O=C(OCC1c2ccccc2-c2ccccc21)N1C[C@@H]2CCCN3CCC[C@@H]([C@H]23)[C@H]1CCCc1nc2ccc(C(F)(F)F)cc2n1C(=O)OCC1c2ccccc2-c2ccccc21	27.8 µM	–
> 80 µM	68.3 µM	21.6 µM	–	O=S(=O)(c1ccc(Cl)cc1)N1C[C@@H]2CCCN3CCC[C@@H]([C@H]23)[C@H]1CCCc1nc2cc(Cl)ccc2n1S(=O)(=O)c1ccc(Cl)cc1	18.4 µM	–
15.1 µM	20.8 µM	11.6 µM	–	O=C(OCC1c2ccccc2-c2ccccc21)N1C[C@@H]2CCCN3CCC[C@@H]([C@H]23)[C@H]1CCCc1nc2ccc(Br)cc2[nH]1	10.4 µM	–
71.8 µM	74.2 µM	40 µM	–	Cc1ccc(S(=O)(=O)N2C[C@@H]3CCCN4CCC[C@@H]([C@H]34)[C@H]2CCCc2nc3ccc([N+](=O)[O-])cc3n2S(=O)(=O)c2ccc(C)cc2)cc1	40.2 µM	–
8.56 µM	12.3 µM	5.89 µM	4.17 µM	Cc1ccc(S(=O)(=O)N2C[C@@H]3CCCN4CCC[C@@H]([C@H]34)[C@H]2CCCc2nc3ccc(Br)cc3n2S(=O)(=O)c2ccc(C)cc2)cc1	9.38 µM	> 64 µM
62.4 µM	57.3 µM	9.17 µM	14.4 µM	O=S(=O)(c1ccc(C(F)(F)F)cc1)N1C[C@@H]2CCCN3CCC[C@@H]([C@H]23)[C@H]1CCCc1nc2cc(Cl)ccc2n1S(=O)(=O)c1ccc(C(F)(F)F)cc1	8.65 µM	> 64 µM
40 µM	62.4 µM	19.8 µM	–	O=S(=O)(c1cccc2ccccc12)N1C[C@@H]2CCCN3CCC[C@@H]([C@H]23)[C@H]1CCCc1nc2ccc(F)cc2n1S(=O)(=O)c1cccc2ccccc12	12.4 µM	–
66.3 µM	77.5 µM	> 80 µM	–	CC(C)(C)c1ccc(S(=O)(=O)N2C[C@@H]3CCCN4CCC[C@@H]([C@H]34)[C@H]2CCCc2nc3cc(Cl)ccc3n2S(=O)(=O)c2ccc(C(C)(C)C)cc2)cc1	58.9 µM	–
55.6 µM	59.7 µM	11.6 µM	–	CC(C)(C)c1ccc(S(=O)(=O)N2C[C@@H]3CCCN4CCC[C@@H]([C@H]34)[C@H]2CCCc2nc3ccccc3n2S(=O)(=O)c2ccc(C(C)(C)C)cc2)cc1	22.2 µM	–
59.6 µM	79.9 µM	> 80 µM	–	O=S(=O)(c1ccc(Br)cc1)N1C[C@@H]2CCCN3CCC[C@@H]([C@H]23)[C@H]1CCCc1nc2cc(Cl)ccc2n1S(=O)(=O)c1ccc(Br)cc1	77.2 µM	–
21.7 µM	30.7 µM	37.4 µM	–	O=C(CCC[C@@H]1[C@H]2CCCN3CCC[C@@H](CN1C(=O)OCC1c4ccccc4-c4ccccc41)[C@@H]23)NCCCc1nc2ccccc2[nH]1	24.4 µM	–
